Measurements reported in article PMC3701070 (PLoS ONE, 2013).

How the values were obtained:
Assay in all cases: Cell growth assay
Assay type in all cases: cell-based
HuNS-1 = settings: Homo sapiens, HuNS1, 72 h; HuNS-1, RAF WT, RAS WT, 3-day; read-out: gIC50
Experimental: (§1) Growth was measured with CellTiter-Glo® (Promega) reagent per the manufacturer’s protocol, using a PerkinElmer EnVision™ reader at t = 0 and 72 h. IC50 values for cell growth inhibition (gIC50) were determined.
(§2) (PDF) Click here for additional data file.

C-4 I = settings: Homo sapiens, 72 h, RAF WT, RAS WT, 3-day, read-out: gIC50
Experimental: as §1, §2

NCI-H508 = settings: Homo sapiens, 72 h; NCI-H508, BRAF(G596R), RAS WT, 3-day; read-out: gIC50
Experimental: as §1, §2

22Rv1 = settings: Homo sapiens, 72 h; 22Rv1, RAF WT, RAS WT, 3-day; read-out: gIC50
Experimental: as §1, §2

A2780 = settings: Homo sapiens, 72 h; A2780, RAF WT, RAS WT, 3-day; read-out: gIC50
Experimental: as §1, §2

NCI-H630 = settings: Homo sapiens, 72 h; NCI-H630, RAF WT, RAS WT, 3-day; read-out: gIC50
Experimental: as §1, §2

NCI-N87 = settings: Homo sapiens, 72 h; NCI-N87, RAF WT, RAS WT, 3-day; read-out: gIC50
Experimental: as §1, §2

NCI-H460 = settings: Homo sapiens, 72 h; NCI-H460, RAF WT, KRAS(Q61H), 3-day; read-out: gIC50
Experimental: as §1, §2

KM-12 = settings: Homo sapiens, KM12, 72 h; KM-12, RAF WT, RAS WT, 3-day; read-out: gIC50
Experimental: as §1, §2

NCI-H2228 = settings: Homo sapiens, 72 h; NCI-H2228, RAF WT, RAS WT, 3-day; read-out: gIC50
Experimental: as §1, §2

DOTC 24510 = settings: Homo sapiens, DoTc2-4510, 72 h; DOTC 24510, RAF WT, RAS WT, 3-day; read-out: gIC50
Experimental: as §1, §2

SW756 = settings: Homo sapiens, 72 h; SW756, RAF WT, KRAS(G12C), 3-day; read-out: gIC50
Experimental: as §1, §2

SCC-12 = settings: Homo sapiens, SCC12, 72 h; SCC-12, RAF WT, RAS WT, 3-day; read-out: gIC50
Experimental: as §1, §2

HCC-1954 = settings: Homo sapiens, HCC1954, 72 h; HCC-1954, RAF WT, RAS WT, 3-day; read-out: gIC50
Experimental: as §1, §2

SaOS2 = settings: Homo sapiens, SAOS-2, 72 h; SaOS2, RAF WT, RAS WT, 3-day; read-out: gIC50
Experimental: as §1, §2

A427 = settings: Homo sapiens, A-427, 72 h; A427, RAF WT, RAS WT, 3-day; read-out: gIC50
Experimental: as §1, §2

ZR-75-1 = settings: Homo sapiens, 72 h; ZR-75-1, RAF WT, RAS WT, 3-day; read-out: gIC50
Experimental: as §1, §2

A673 = settings: Homo sapiens, 72 h; A673, BRAF(V600E), RAS WT, 3-day; read-out: gIC50
Experimental: as §1, §2

C33A = settings: Homo sapiens, C-33-A, 72 h, RAF WT, RAS WT, 3-day, read-out: gIC50
Experimental: as §1, §2

P3HR-1 = settings: Homo sapiens, 72 h; P3HR-1, RAF WT, RAS WT, 3-day; read-out: gIC50
Experimental: as §1, §2

BC-1 = settings: Homo sapiens, BC1, 72 h; BC-1, RAF WT, RAS WT, 3-day; read-out: gIC50
Experimental: as §1, §2

ARH-77 = settings: Homo sapiens, 72 h; ARH-77, RAF WT, RAS WT, 3-day; read-out: gIC50
Experimental: as §1, §2

SW1990 = settings: Homo sapiens, 72 h; SW1990, RAF WT, RAS WT, 3-day; read-out: gIC50
Experimental: as §1, §2

SR = settings: Homo sapiens, 72 h, RAF WT, RAS WT, 3-day, read-out: gIC50
Experimental: as §1, §2

OE-19 = settings: Homo sapiens, OE19, 72 h; OE-19, RAF WT, RAS WT, 3-day; read-out: gIC50
Experimental: as §1, §2

SNU-449 = settings: Homo sapiens, 72 h; SNU-449, RAF WT, RAS WT, 3-day; read-out: gIC50
Experimental: as §1, §2

ACHN = settings: Homo sapiens, 72 h, RAF WT, RAS WT, 3-day, read-out: gIC50
Experimental: as §1, §2

Colo320DM = settings: Homo sapiens, COLO 320DM, 72 h, RAF WT, RAS WT, 3-day, read-out: gIC50
Experimental: as §1, §2

COR-L23 = settings: Homo sapiens, 72 h; COR-L23, RAF WT, RAS WT, 3-day; read-out: gIC50
Experimental: as §1, §2

Colo 205 = settings: Homo sapiens, 72 h; Colo 205, BRAF(V600E), RAS WT, 3-day; read-out: gIC50
Experimental: as §1, §2

CRO-AP2 = settings: Homo sapiens, 72 h; CRO-AP2, RAF WT, RAS WT, 3-day; read-out: gIC50
Experimental: as §1, §2

## CC(C)(C)c1nc(-c2cccc(NS(=O)(=O)c3c(F)cccc3F)c2F)c(-c2ccnc(N)n2)s1 [dabrafenib]
HuNS-1
  IC50: > 10 µM
C-4 I
  IC50: > 10 µM
NCI-H508
  IC50: > 10 µM
22Rv1
  IC50: > 10 µM
A2780
  IC50: > 10 µM
NCI-H630
  IC50: > 10 µM
NCI-N87
  IC50: > 10 µM
NCI-H460
  IC50: > 10 µM
KM-12
  IC50: > 10 µM
NCI-H2228
  IC50: > 10 µM
DOTC 24510
  IC50: > 10 µM
SW756
  IC50: > 10 µM
SCC-12
  IC50: > 10 µM
HCC-1954
  IC50: > 10 µM
SaOS2
  IC50: > 10 µM
A427
  IC50: > 10 µM
ZR-75-1
  IC50: > 10 µM
A673
  IC50: > 10 µM
C33A
  IC50: > 10 µM
P3HR-1
  IC50: > 10 µM
BC-1
  IC50: 0.704 µM
ARH-77
  IC50: > 10 µM
SW1990
  IC50: > 10 µM
SR
  IC50: > 10 µM
OE-19
  IC50: > 10 µM
SNU-449
  IC50: > 10 µM
ACHN
  IC50: 0.294 µM
Colo320DM
  IC50: > 10 µM
COR-L23
  IC50: > 10 µM
Colo 205
  IC50: 0.007 µM
CRO-AP2
  IC50: > 10 µM
